{"source": "patent US20260324636A1", "about": "“COMPOSITION FOR PROVIDING PLANT WITH STRESS RESISTANCE” (KIRIN HOLDINGS KABUSHIKI KAISHA, priority 2022, published 2026)", "key": {"ZAT10": {"test_system": "ZAT10", "experiment": "Histone H4 acetylation level of ZAT10 by chromatin immunoprecipitation and quantitative PCR, Example 14", "assay_type": "in vivo, Arabidopsis thaliana (Col-0)", "conditions": "Arabidopsis thaliana; 0.4 mM in medium, 2 hours after application; read-out: histone H4 acetylation level of ZAT10, increase vs group not subjected to the treatment", "description": "(§1) A wild-type Arabidopsis thaliana strain (accession: Col-0) was used as an experimental material. Seeds were purchased from Inplanta Innovations Inc.\n(§2) A liquid medium containing a ½ Murashige and Skoog Plant Salt Mixture (Nacalai) and 1 (w/v) % sucrose (FUJIFILM Wako) was used as a growth medium.\n(§3) Arabidopsis thaliana seeds were sterilized with the use of a Kitchen Haiter® liquid (Kao Corporation) diluted to one-half concentration with distilled water for 3 minutes, washed 3 times with sterile distilled water, and then incubated at 4° C. overnight. The growth medium (100 ml) was prepared in a 300-ml flask, the incubated seeds were seeded therein, the flask was transferred to an incubator (TOMY), and shake culture was then initiated. The incubator was maintained at a temperature of 22° C. for a daily cycle of 16 hours light and 8 hours darkness, and the rotation speed of the shaker was set at 180 rpm.\n(§4) A stock solution of N-acetylglutamic acid (Tokyo Chemical Industry Co., Ltd.) was added to Arabidopsis thaliana 7 days after seeding to the final concentration of 0 mM and 0.4 mM in the media, followed by incubation for 2 hours. Sample fixation following incubation was performed in accordance with Yamaguchi et al (Arabidopsis Book, Feb. 17, 2014; 12: e0170). […]"}, "ZAT12": {"test_system": "ZAT12", "experiment": "Histone H4 acetylation level of ZAT12 by chromatin immunoprecipitation and quantitative PCR, Example 14", "assay_type": "in vivo, Arabidopsis thaliana (Col-0)", "conditions": "Arabidopsis thaliana; 0.4 mM in medium, 2 hours after application; read-out: histone H4 acetylation level of ZAT12, increase vs group not subjected to the treatment", "description": "as §1, §2, §3, §4"}, "OsZAT12": {"test_system": "OsZAT12", "experiment": "OsZAT12 gene expression by real-time PCR, Example 12", "assay_type": "in vivo, rice", "conditions": "Oryza sativa; 0.5 mM in medium, 30° C. for 2 hours, aboveground part; read-out: OsZAT12 expression level, increase vs control", "text": "In order to design primers for the target genes necessary for gene expression analysis by real-time PCR, homologs of Arabidopsis thaliana high-temperature-responsive genes in rice were searched for. The amino acid sequence of Arabidopsis thaliana ZAT12 (AGI code: AT5G59820) was obtained from TAIR (https://www.arabidopsis.org/), and the nucleotide sequence of the homolog was obtained using RAP-DB (https://rapdb.dna.affrc.go.jp/). As a reference gene, the nucleotide sequence of the homolog of Arabidopsis thaliana ACTIN2 (AGI code: AT3G18780) was also obtained. Homolog genes in rice were designated as OsZAT12 and OsACT1, respectively.\nThe materials as employed in Example 3 were used.\nThe method as employed in Example 3 was employed.\nThe rice samples subjected to germination for 3 days were inoculated into a liquid medium consisting of a ½ Murashige and Skoog Plant Salt Mixture. Specifically, a liquid medium was dispensed at 3 ml/well to a 12-well microplate (IWAKI), and 3 samples were transferred to each well. N-acetylglutamic acid was applied to each well to the final concentration of 0.5 mM in the medium, incubation was performed at 30° C. for 2 hours, and RNA was extracted from the aboveground part using the RNeasy Plant Mini Kit. […]\nThereafter, the relative expression level of the target gene upon N-acetylglutamic acid treatment was calculated by the ΔΔCt method."}}, "data": [{"smiles": "CC(=O)N[C@@H](CCC(=O)O)C(=O)O", "note": "[N-acetylglutamic acid]", "values": [{"measurement": "fold induction at 400 µM", "setting": "ZAT10", "value": 1.9}, {"measurement": "fold induction at 400 µM", "setting": "ZAT12", "value": 2.3}, {"measurement": "fold induction at 500 µM", "setting": "OsZAT12", "value": 2.9}]}]}
